From US10294212B2 (CURADEV PHARMA PRIVATE LTD., priority 2013, dated 2019) come the findings set out here.

Assay [1] addresses Human indoleamine 2,3-dioxygenase1 (hIDO1) (Homo sapiens (Human), UniProt P14902). Put plainly: In-vitro IDO1 enzyme assay (conversion of L-tryptophan to KYN). The format is biochemical. The following applies: read-out: IC50 (IDO1) Enz. The procedure, abridged:
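Kynurenine formation quantified by HPLC absorbance at 360 nm or LC/MS/MS after TCA quench and 15 min at 65 °C. Reaction: 10 nM N-His hIDO1, 30 μM tryptophan, ascorbate/methylene blue/catalase, pH 6.5 phosphate buffer, 37 °C for 30 min. Inhibition relative to 1% DMSO vehicle, fitted to IC50.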

Assay [2] deals with IDO1 in HeLa cells (Homo sapiens (Human), UniProt P14902). The experiment in a line: HeLa cell based IDO1 assay (IFNγ-induced, KYN in supernatant). The procedure, abridged: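 Kynurenine in the supernatant, quantified by C-18 HPLC with 360 nm absorbance after TCA hydrolysis (65 °C, 15 min), was the read-out. Compounds (typically 10 μM to 1 nM) were added in HBSS containing 80 μM tryptophan to HeLa cells pre-induced overnight with 50 ng/mL IFNγ. IC50 came from nonlinear fits of % inhibition versus 1% DMSO vehicle.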

For assay [3], the target named is Human TDO (hTDO)-transfected CHO-K1 cells (Homo sapiens (Human), UniProt P48775). The experiment in a line: CHO-K1 cell based TDO assay. The following applies: hTDO cellular assay. The procedure, abridged:
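Kynurenine output was read by LC/MS/MS after TCA precipitation and 15 min at 65° C. Before that, CHO-K1 cells stably carrying human TDO2 were incubated 2 h with compounds (typically 31 μM to 10 nM) and 80 μM L-tryptophan in HBSS. Decrease versus DMSO vehicle gave percent inhibition, then IC50.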

Some results are limits rather than exact numbers.

Sequence of Human TDO (hTDO)-transfected CHO-K1 cells (P48775 whole entry): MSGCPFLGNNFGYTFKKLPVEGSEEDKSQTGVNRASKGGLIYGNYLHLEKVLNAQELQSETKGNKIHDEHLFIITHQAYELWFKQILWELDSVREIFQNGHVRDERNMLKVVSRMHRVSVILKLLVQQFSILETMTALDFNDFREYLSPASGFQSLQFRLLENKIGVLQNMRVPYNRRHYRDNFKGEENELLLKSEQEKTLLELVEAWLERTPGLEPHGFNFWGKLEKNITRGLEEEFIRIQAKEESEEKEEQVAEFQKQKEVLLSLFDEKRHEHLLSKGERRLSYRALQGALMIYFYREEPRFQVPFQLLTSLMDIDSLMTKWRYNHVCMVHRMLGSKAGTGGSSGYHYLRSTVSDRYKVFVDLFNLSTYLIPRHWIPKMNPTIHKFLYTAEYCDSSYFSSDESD
Sequence of IDO1 in HeLa cells (P14902 whole entry): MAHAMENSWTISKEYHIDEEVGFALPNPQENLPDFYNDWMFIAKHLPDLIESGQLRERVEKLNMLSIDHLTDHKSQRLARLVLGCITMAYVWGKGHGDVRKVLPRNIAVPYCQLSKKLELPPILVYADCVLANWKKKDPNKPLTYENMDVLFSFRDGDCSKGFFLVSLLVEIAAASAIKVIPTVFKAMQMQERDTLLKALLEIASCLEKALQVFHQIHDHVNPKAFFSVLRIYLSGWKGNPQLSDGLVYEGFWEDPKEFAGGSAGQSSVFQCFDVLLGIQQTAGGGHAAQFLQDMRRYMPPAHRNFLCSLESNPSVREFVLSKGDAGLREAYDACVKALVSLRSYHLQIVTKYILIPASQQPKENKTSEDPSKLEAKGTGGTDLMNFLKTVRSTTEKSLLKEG
Sequence of Human indoleamine 2,3-dioxygenase1 (hIDO1) (P14902 whole entry): as above

Regarding `CNC(=O)c1cc(-c2nccc3c(Nc4ccc(F)c(F)c4)c(N)oc23)ccn1` [Compound 223, 4-(2-Amino-3-((3,4-difluorophenyl)amino)furo[2,3-c]pyridin-7-yl)-N-methylpicolinamide], the IC50 in assay [1] is < 200 nM; in assay [2] it was < 200 nM; in assay [3], 500 to 2000 nM.
Regarding `COc1ccccc1-c1nccc2c(Nc3ccc(F)c(Cl)c3)c(N)oc12` [Compound 98, N^3-(3-Chloro-4-fluorophenyl)-7-(2-methoxyphenyl)furo[2,3-c]pyridine-2,3-diamine], the results for the IC50 in assay [1], in assay [2] and in assay [3] were < 200 nM, < 200 nM and 500 to 2000 nM, respectively.
On to `N#Cc1cccc(Nc2c(N)oc3cnccc23)c1` [Compound 99, 3-((2-Aminofuro[2,3-c]pyridin-3-yl)amino)benzonitrile], for which the figures for the half-maximal inhibitory concentration (IC50) in assay [1], in assay [2] and in assay [3] were > 1000 nM, < 200 nM and > 2000 nM, respectively.
The like results for `CC(C)(C)c1cc(-c2nccc3c(Nc4ccc(F)c(Cl)c4)c(N)oc23)ccn1` [Compound 259, 7-(2-(tert-Butyl)pyridin-4-yl)-N^3-(3-chloro-4-fluorophenyl)furo[2,3-c]pyridine-2,3-diamine] were, in that order, < 200 nM, 200 to 1000 nM and > 2000 nM.
The like results for `Nc1sc2ccccc2c1Nc1ccc(Br)c(C(F)(F)F)c1` [Compound 126, N^3-(4-Bromo-3-(trifluoromethyl)phenyl)benzo[b]thiophene-2,3-diamine] were, in that order, 200 to 1000 nM, 200 to 1000 nM and > 2000 nM.
The corresponding values for `Nc1oc2cnccc2c1Nc1ccc(Br)cc1` [Compound 16, N^3-(4-Bromophenyl)furo[2,3-c]pyridine-2,3-diamine] are > 1000 nM, 200 to 1000 nM and 500 to 2000 nM.
Take `Nc1sc2c(-c3ccncc3)cccc2c1Nc1ccc(F)c(Cl)c1` [Compound 213, N^3-(3-Chloro-4-fluorophenyl)-7-(pyridin-4-yl)benzo[b]thiophene-2,3-diamine]: the half-inhibitory concentration (IC50) in assay [1] was < 200 nM; in assay [2], < 200 nM; in assay [3], 500 to 2000 nM.
As to `Nc1oc2cnccc2c1Nc1cccc(Cl)c1` [Compound 8, N^3-(3-Chlorophenyl)furo[2,3-c]pyridine-2,3-diamine], the IC50 in assay [1] was 200 to 1000 nM; in assay [2], < 200 nM; in assay [3], 500 to 2000 nM.
The corresponding values for `CCc1nccc2c(Nc3ccc(F)c(Cl)c3)c(N)oc12` [Compound 73, N^3-(3-Chloro-4-fluoro-phenyl)-7-ethyl-furo[2,3-c]pyridine-2,3-diamine] are < 200 nM, < 200 nM and < 500 nM.
The like results for `N#Cc1nccc2c(Nc3ccccc3Cl)c(N)oc12` [Compound 182, 2-Amino-3-((2-chlorophenyl)amino)furo[2,3-c]pyridine-7-carbonitrile] were, in that order, < 200 nM, < 200 nM and > 2000 nM.
The corresponding values for `Nc1oc2cc([N+](=O)[O-])ccc2c1Nc1ccc(F)c(Cl)c1` [Compound 179, N^3-(3-chloro-4-fluorophenyl)-6-nitrobenzofuran-2,3-diamine] are < 200 nM, < 200 nM and 500 to 2000 nM.
Take `Nc1oc2cnccc2c1Nc1cc(Cl)c(F)c(Cl)c1` [Compound 47, N^3-(3,5-Dichloro-4-fluorophenyl)furo[2,3-c]pyridine-2,3-diamine]: the IC50 in assay [1] is > 1000 nM; in assay [2], 200 to 1000 nM; in assay [3] it was 500 to 2000 nM.
The corresponding values for `CCc1cc2c(Nc3ccc(F)c(Cl)c3)c(N)oc2c(-c2ccccc2)n1` [Compound 109, N^3-(3-chloro-4-fluorophenyl)-5-ethyl-7-phenylfuro[2,3-c]pyridine-2,3-diamine] are 200 to 1000 nM, 200 to 1000 nM and > 2000 nM.
The corresponding values for `Cc1nccc2c(Nc3cccc(C(F)(F)F)c3)c(N)oc12` [Compound 80, 7-Methyl-N^3-(3-(trifluoromethyl)phenyl)furo[2,3-c]pyridine-2,3-diamine] are < 200 nM, < 200 nM and > 2000 nM.
As for `CNC(=O)c1cc(-c2nccc3c(Nc4cccc(Cl)c4)c(N)oc23)ccn1` [Compound 225, 4-(2-Amino-3-((3-chlorophenyl)amino)furo[2,3-c]pyridin-7-yl)-N-methylpicolinamide], the IC50 was < 200 nM in assay [1], < 200 nM in assay [2] and 500 to 2000 nM in assay [3].
Take `Cc1ccc2sc(N)c(Nc3ccc(F)c(Cl)c3)c2c1` [Compound 214, N^3-(3-Chloro-4-fluorophenyl)-5-methylbenzo[b]thiophene-2,3-diamine]: the IC50 in assay [1] was 200 to 1000 nM; in assay [2] it was < 200 nM; in assay [3] it was > 2000 nM.
The corresponding values for `COc1cc2c(Nc3ccc(F)c(Cl)c3)c(N)oc2c(Br)n1` [Compound 172, 7-Bromo-N^3-(3-chloro-4-fluorophenyl)-5-methoxyfuro[2,3-c]pyridine-2,3-diamine] are < 200 nM, < 200 nM and > 2000 nM.
On to `Cc1cc(-c2nccc3c(Nc4ccc(F)cc4)c(N)oc23)ccn1` [Compound 208, N^3-(4-fluorophenyl)-7-(2-methylpyridin-4-yl)furo[2,3-c]pyridine-2,3-diamine], for which the results for the IC50 in assay [1], in assay [2] and in assay [3] were < 200 nM, < 200 nM and < 500 nM, respectively.
Take `Nc1sc2ccc(Cl)cc2c1Nc1ccc(F)c(C(F)(F)F)c1` [Compound 132, 5-Chloro-N^3-(4-fluoro-3-(trifluoromethyl)phenyl)benzo[b]thiophene-2,3-diamine]: the IC50 was 200 to 1000 nM in assay [1], 200 to 1000 nM in assay [2] and > 2000 nM in assay [3].
Regarding `Cc1nccc2c(Nc3ccc(F)c(Cl)c3)c(N)oc12` [Compound 66, N^3-(3-Chloro-4-fluoro-phenyl)-7-methyl-furo[2,3-c]pyridine-2,3-diamine], the IC50 in assay [1] was < 200 nM; in assay [2], < 200 nM; in assay [3] it was < 500 nM.
Consider `Nc1oc2c(F)nccc2c1Nc1ccc(F)c(Cl)c1` [Compound 176, N^3-(3-chloro-4-fluorophenyl)-7-fluorofuro[2,3-c]pyridine-2,3-diamine], for which the figures for the IC50 in assay [1], in assay [2] and in assay [3] were < 200 nM, < 200 nM and < 500 nM, respectively.
For the compound `Nc1oc2cnc(Cl)cc2c1Nc1ccc(F)c(Cl)c1` [Compound 177, 5-Chloro-N3-(3-chloro-4-fluorophenyl)furo[2,3-c]pyridine-2,3-diamine], the results for the IC50 in assay [1], in assay [2] and in assay [3] were < 200 nM, < 200 nM and 500 to 2000 nM, respectively.
For `Nc1oc2c(-c3ccncc3)nccc2c1Nc1ccccc1Cl` [Compound 202, N^3-(2-Chlorophenyl)-7-(pyridin-4-yl)furo[2,3-c]pyridine-2,3-diamine], the values for the IC50 in assay [1], in assay [2] and in assay [3] were < 200 nM, < 200 nM and 500 to 2000 nM, respectively.
On to `Nc1oc2cnccc2c1Nc1cccc(I)c1` [Compound 20, N^3-(3-Iodophenyl)furo[2,3-c]pyridine-2,3-diamine], for which the IC50 in assay [1] is < 200 nM; in assay [2] it was < 200 nM; in assay [3], 500 to 2000 nM.
Turning to `C#Cc1cccc(Nc2c(N)oc3c(CC)nccc23)c1` [Compound 96, 7-Ethyl-N^3-(3-ethynylphenyl)furo[2,3-c]pyridine-2,3-diamine], the values for the IC50 in assay [1], in assay [2] and in assay [3] were < 200 nM, < 200 nM and 500 to 2000 nM, respectively.
Regarding `CCc1nccc2c(Nc3ccc(F)c(C(F)(F)F)c3)c(N)oc12` [Compound 74, 7-Ethyl-N^3-(4-fluoro-3-(trifluoromethyl)phenyl)furo[2,3-c]pyridine-2,3-diamine], the figures for the half-inhibitory concentration (IC50) in assay [1], in assay [2] and in assay [3] were < 200 nM, < 200 nM and > 2000 nM, respectively.
In the case of `Nc1sc2ccccc2c1Nc1ccc2c(c1)OCO2` [Compound 236, N^3-(benzo[d][1,3]dioxol-5-yl)benzo[b]thiophene-2,3-diamine], the IC50 in assay [1] was < 200 nM; in assay [2] it was < 200 nM; in assay [3], > 2000 nM.
Turning to `Nc1oc2c(F)nccc2c1Nc1ccc(F)c(C(F)(F)F)c1` [Compound 189, 7-Fluoro-N^3-(4-fluoro-3-(trifluoromethyl)phenyl)furo[2,3-c]pyridine-2,3-diamine], the half-inhibitory concentration (IC50) is < 200 nM in assay [1], < 200 nM in assay [2] and 500 to 2000 nM in assay [3].
With `Nc1oc2c(-c3cccc(Cl)c3)nccc2c1Nc1ccc(F)c(Cl)c1` [Compound 100, N^3-(3-Chloro-4-fluorophenyl)-7-(3-chlorophenyl)furo[2,3-c]pyridine-2,3-diamine], the results for the half-inhibitory concentration (IC50) in assay [1], in assay [2] and in assay [3] were < 200 nM, < 200 nM and > 2000 nM, respectively.
`N#Cc1nccc2c(Nc3ccc(F)c(C(F)(F)F)c3)c(N)oc12` [Compound 183, 2-Amino-3-((4-fluoro-3-(trifluoromethyl)phenyl)amino)furo[2,3-c]pyridine-7-carbonitrile]: the results for the IC50 in assay [1], in assay [2] and in assay [3] were < 200 nM, < 200 nM and 500 to 2000 nM, respectively.
